The values that follow come from patent publication US6118050A, “Hydroxyphenylpyruvate dioxygenase gene from arabidopsis and method of screening for inhibitors thereof” (American Cyanamid Company, priority 1997, dated 2000).

For one assay, the system named is Lemna. As to conditions: cited from earlier work.
The subject of another assay is albino psdl mutant. As to conditions: transferred to MS2 medium supplemented with OHPP or HGA; cited from earlier work.
In the next assay the target is T1, Arabidopsis HPPD (Arabidopsis thaliana, UniProt P93836).
T1 construct: made in house; host or cells: E. coli (pKK233-2, trc promoter); desalted lysate supernatant
T1 sequence (P93836 1-445): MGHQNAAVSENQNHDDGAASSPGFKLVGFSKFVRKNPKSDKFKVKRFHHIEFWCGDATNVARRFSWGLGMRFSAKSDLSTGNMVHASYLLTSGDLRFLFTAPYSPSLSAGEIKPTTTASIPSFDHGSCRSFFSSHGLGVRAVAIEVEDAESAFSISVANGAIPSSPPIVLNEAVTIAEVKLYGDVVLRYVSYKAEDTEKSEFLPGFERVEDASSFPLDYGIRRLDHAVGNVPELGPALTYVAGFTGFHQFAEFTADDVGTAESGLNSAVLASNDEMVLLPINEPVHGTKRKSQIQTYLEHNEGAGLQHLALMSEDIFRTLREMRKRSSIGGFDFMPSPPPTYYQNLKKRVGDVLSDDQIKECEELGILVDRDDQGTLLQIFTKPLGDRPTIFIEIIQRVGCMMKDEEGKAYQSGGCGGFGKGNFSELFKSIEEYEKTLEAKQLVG
Description: HPPD enzymatic activity by capture of released 14CO2 from 14C-hydroxyphenylpyruvate, extract of E. coli transformed with Arabidopsis HPPD gene. The class given is biochemical. Here is the method: E. coli transformants were treated with 0.1 mg/ml lysozyme in 50 mM potassium phosphate buffer (pH 7.3) at 30° C. for 10 min. Cells were sonicated (3 times, 5 sec each, using a VibraCell sonicator, Sonics and Material, Inc., Danbury, Conn.) and the extract was subjected to centrifugation. The supernatant was desalted on an Econo-Pac 10DG column (Bio-Rad, Richmond, Calif.) that had been equilibrated with 50 mM phosphate buffer (pH 7.3). The desalted HPPD-containing extract was used for the HPPD assay.
HPPD enzymatic activity was determined by the capture of released ^14 CO2 from ^14 C-hydroxyphenylpyruvate (Schulz et al., FEBS Letts. 318:162, 1993; Secor, Plant Physiol. 106:1429, 1994). Reactions were performed in 20 ml scintillation vials, each capped with a serum stopper through which a polypropylene well containing 50 μl of benzethonium hydroxide was suspended. Each 450 μl reaction mixture contained: 50 mM potassium phosphate buffer (pH 7.3); 50 μl of a freshly prepared 1:1 (v/v) mixture of 150 mM reduced glutathione and 3 mM dichlorophenolindophenol; 2500 units of catalase; and bacterial extract (source of HPPD). Enzyme inhibitors were added where indicated. ^14 C-hydroxyphenylpyruvate (50 μl of a 2 mM solution), prepared according to the method of Secor (1994, supra), was added to initiate the reaction, which proceeded at 30° C. for 30 min. The reaction was stopped by adding 100 μl 4 N sulfuric acid and the mixture was incubated for a further 30 min. The radioactivity trapped in benzethonium hydroxide was counted in a scintillation counter.

The target of assay [1] is partially purified enzyme extracted from maize (HPPD). As to conditions: partially purified maize enzyme (Schulz et al., 1993); read-out: calculated IC50; cited from earlier work.
The target in assay [2] is partially purified HPPD from barnyardgrass (Echinochloa crus-galli L.). As to conditions: partially purified HPPD from barnyardgrass (Secor, 1994); cited from earlier work.
A further assay has as its system susceptible plants. The following applies: cited from earlier work.
The test system of assay [3] is E. coli transformed with the Arabidopsis HPPD gene. Nature of the assay: Brown pigment formation in E. coli transformed with the Arabidopsis HPPD gene (absorption at 450 nm). The class given is cell-based. As to conditions: medium supplemented with tyrosine (FIG. 2). From the text: B. Production of Brown Pigment and Homogentisic Acid in E. coli
No similar brown pigmentation was associated with untransformed E. coli or with E. coli transformed with the control vector.

Regarding `O=C(O)Cc1cc(O)ccc1O` [homogentisic acid], in the assay with Lemna (Lemna treated with sulcotrione), the “reversal of the herbicidal effect of sulcotrione” value was “herbicidal effect could be abolished”. The “greening of albino psdl mutant” value in the assay on albino psdl mutant is reported as “greened”.
Take `CS(=O)(=O)c1ccc(C(=O)C2C(=O)CCCC2=O)c(Cl)c1` [sulcotrione, 2-(2-chloro-4-methanesulfonylbenzoyl)-1,3-cyclohexanedione]: at Arabidopsis HPPD (at more than 1 μM sulcotrione (FIG. 4)), the “inhibition of the HPPD activity” value was “Nearly complete inhibition”. The IC50 on Arabidopsis HPPD (cell extract of transformed E. coli, pH 7.3, 30° C., 30 min (FIG. 4), read-out: concentration required to cause 50% inhibition of the HPPD activity) is 100 nM. In assay [1], the IC50 was 45 nM. Also, in assay [2], the Ki is 9.8 nM and the type of inhibition entry is given as “potent competitive inhibitor”. The “pigment, phytoene and tyrosine changes” value in the assay with susceptible plants (accompanying bleaching) is “loss of carotenoids and chlorophyll with an increase in phytoene and tyrosine”. Besides, the bleaching result with susceptible plants was “strong bleaching”. Further, the growth inhibition result with Lemna (treatment of Lemna) is given as “severely inhibited growth”.
For `N[C@@H](Cc1ccc(O)cc1)C(=O)O` [tyrosine], the “formation of the brown pigment” value in assay [3] is on record as “increased”.

B1: Arabidopsis HPPD: 4-hydroxyphenylpyruvate dioxygenase (HPPD) from Arabidopsis thaliana (AtHPPD) SEQ ID No: 1 (protein)
chain: MGHQNAAVSENQNHDDGAASSPGFKLVGFSKFVRKNPKSDKFKVKRFHHIEFWCGDATNVARRFSWGLGMRFSAKSDLSTGNMVHASYLLTSGDLRFLFTAPYSPSLSAGEIKPTTTASIPSFDHGSCRSFFSSHGLGVRAVAIEVEDAESAFSISVANGAIPSSPPIVLNEAVTIAEVKLYGDVVLRYVSYKAEDTEKSEFLPGFERVEDASSFPLDYGIRRLDHAVGNVPELGPALTYVAGFTGFHQFAEFTADDVGTAESGLNSAVLASNDEMVLLPINEPVHGTKRKSQIQTYLEHNEGAGLQHLALMSEDIFRTLREMRKRSSIGGFDFMPSPPPTYYQNLKKRVGDVLSDDQIKECEELGILVDRDDQGTLLQIFTKPLGDDRPTIFIEIIQRVGCMMKDEEGKAYQSGGCGGFGKGNFSELFKSIEEYEKTLEAKQLVG
In the case of B1, the HPPD activity with Arabidopsis HPPD (extract of E. coli transformed with the Arabidopsis HPPD gene, no inhibitor) is listed as 2.7 μmol/mg protein/hr.

As usually defined, the Ki is the dissociation constant of the complex between target and ligand, obtained from inhibition or displacement.
